A word on the Km: it is the substrate concentration at which the rate is half of its maximum. A word on the Vmax: it is the top rate of the reaction or transport when substrate is in excess.

Results on four molecules are retold here after article PMC4975031, “A multifunctional GH39 glycoside hydrolase from the anaerobic gut fungus Orpinomyces sp. strain C1A” (PeerJ, 2016).

Data set [1] deals with T1, Bgxg1 (Pecoramyces ruminantium, UniProt A0A0U3AYH9).
T1 construct: codon-optimised fragment, 939 bp [sic], nucleotide positions 67-1,035 of transcript m.21910 (signal peptide predicted in full-length product)
Kind of data set: p-nitrophenol release, Lineweaver-Burk. The format is biochemical. Particulars: pH 6.0, sodium acetate buffer, 39 °C; printed BDL (below detection limit, 500 nM). An excerpt:
(§1) p-nitrophenol release, Lineweaver-Burk on Bgxg1

Data set [2] deals with T2, O=[N+]([O-])c1ccc(O[C@@H]2OC[C@@H](O)[C@H](O)[C@H]2O)cc1.
T2 construct: codon-optimised fragment, 939 bp [sic], nucleotide positions 67-1,035 of transcript m.21910 (signal peptide predicted in full-length product)
Kind of data set: p-nitrophenol release, Lineweaver-Burk. Format: biochemical, Pecoramyces ruminantium. Particulars: pH 6.0, sodium acetate buffer, 39 °C.
Excerpt: as §1

Data set [3] addresses T1, Bgxg1. The data set can be described thus: substrate competition: PNPG hydrolysis in presence of xylobiose. Format: biochemical. To be noted: read-out: Relative specific activity (%). An excerpt:
substrate competition: PNPG hydrolysis in presence of xylobiose on Bgxg1

A value given as a limit tells only on which side of the number the result lay.

T1 sequence (A0A0U3AYH9 23-335 limits assumed): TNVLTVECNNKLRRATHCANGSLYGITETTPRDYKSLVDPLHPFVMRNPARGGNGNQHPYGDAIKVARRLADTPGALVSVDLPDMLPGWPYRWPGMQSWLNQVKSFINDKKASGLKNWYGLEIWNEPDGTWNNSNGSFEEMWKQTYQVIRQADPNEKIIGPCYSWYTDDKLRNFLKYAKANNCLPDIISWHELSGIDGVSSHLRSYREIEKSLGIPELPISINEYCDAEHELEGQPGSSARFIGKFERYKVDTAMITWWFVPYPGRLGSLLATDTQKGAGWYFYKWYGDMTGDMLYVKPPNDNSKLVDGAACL

As to `O=[N+]([O-])c1ccc(O[C@@H]2O[C@H](CO)[C@@H](O)[C@H](O)[C@H]2O)cc1` [PNPG, p-nitrophenyl-β-D-glucopyranoside], the Michaelis-Menten constant (Km) on Bgxg1 [1] is less than 0.5 µM.

With Bgxg1 (Pecoramyces ruminantium), in data set [2], the Km was determined as 4.85 ± 0.62 µM and the Vmax was found to be 127 µmol/min/mg.

On to `O=[N+]([O-])c1ccc(O[C@@H]2O[C@H](CO)[C@H](O)[C@H](O)[C@H]2O)cc1` [PNPGal, p-nitrophenyl-β-D-galactopyranoside], for which the Michaelis-Menten constant (Km) at Bgxg1 [1] is less than 0.5 µM.

Take `OC1OC[C@@H](O[C@@H]2OC[C@@H](O)[C@H](O)[C@H]2O)[C@H](O)[C@H]1O` (some centres unmarked) [xylobiose]: on Bgxg1 [3], the activity at 20000 µM worked out at 57.2%.
